Test results reported in patent publication US20230085307A1, “PYRIDAZINONE COMPOUND AND HERBICIDE” (NISSAN CHEMICAL CORPORATION, priority 2019, published 2023).

Tests used:
Japanese bulrush [1] = assay: Test Example 1: herbicidal activity, application before weed generation under submerged conditions (Table 16, symbol B); assay type: in vivo, Japanese bulrush (Schoenoplectus juncoides); conditions: amount of applied herbicide 320 g/ha
In short: (§1)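 Submerged Wagner pots (alluvial soil, 4 cm water) sown with weed seeds and planted with 2.5-leaf rice seedlings; emulsifiable concentrate diluted in water applied to water surface on sowing day. Held in greenhouse at 25-30 °C; injury scored 0-5 by herbicidal rate after three weeks.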

oval-leafed pondweed = assay: Test Example 1: herbicidal activity, application before weed generation under submerged conditions (Table 16, symbol C); assay type: in vivo, oval-leafed pondweed (Monochoria vaginalis); conditions: amount of applied herbicide 320 g/ha
In short: as §1

Japanese bulrush [2] = assay: Test Example 2: herbicidal activity, application during weed generation under submerged conditions (Table 17, symbol B); assay type: in vivo, Japanese bulrush (Schoenoplectus juncoides); conditions: AAH 320 g/ha; application during weed generation, submerged conditions
In short: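 3-wk visual-criteria score after one water-surface dose. Emulsion formulation, water-diluted to set rate; applied at 1–2 leaf stage; alluvial soil, 4 cm standing water; seeds co-sown; greenhouse 25–30° C.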

Chinese sprangletop = assay: Test Example 3: herbicidal effect by foliage application, Wagner pot (Table 18, symbol D); assay type: in vivo, chinese sprangletop (Leptochloa chinensis); conditions: 320 g/ha
In short: (§2)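 Plants were sown in alluvial soil held under 0.1–0.5 cm standing water and grown 14 days in a greenhouse at 25–30 °C. An emulsifiable formulation, water-diluted to the set dose, was then sprayed onto the foliage, and effects were scored three weeks later using previously defined criteria.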

rice flat sedge = assay: Test Example 3: herbicidal effect by foliage application, Wagner pot (Table 18, symbol E); assay type: in vivo, rice flat sedge (Cyperus iria); conditions: 320 g/ha
In short: as §2

green foxtail = assay: Test Example 4: herbicidal effect by soil treatment (Table 19, symbol G); assay type: in vivo, green foxtail (Setaria viridis); conditions: amount of applied herbicide 320 g/ha
In short: (§3)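 Soil-surface application: an emulsion agent diluted with water to the predetermined dose is sprayed uniformly over seeds lying under roughly 1.5 cm of sterilized diluvial soil. Boxes stay in a greenhouse at 25° C. to 30° C. Three weeks later, each species is graded on previously defined criteria.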

wild oat [3] = assay: Test Example 4: herbicidal effect by soil treatment (Table 19, symbol I); assay type: in vivo, wild oat (Avena fatua); conditions: amount of applied herbicide 320 g/ha
In short: as §3

Italian ryegrass = assay: Test Example 4: herbicidal effect by soil treatment (Table 19, symbol K); assay type: in vivo, Italian ryegrass (Lolium multiflorum); conditions: amount of applied herbicide 320 g/ha
In short: as §3

windgrass [4] = assay: Test Example 4: herbicidal effect by soil treatment (Table 19, symbol L); assay type: in vivo, windgrass (Apera spica-venti); conditions: amount of applied herbicide 320 g/ha
In short: as §3

redroot pigweed [5] = assay: Test Example 4: herbicidal effect by soil treatment (Table 19, symbol N); assay type: in vivo, redroot pigweed (Amaranthus retroflexus); conditions: amount of applied herbicide 320 g/ha
In short: as §3

chickweed = assay: Test Example 4: herbicidal effect by soil treatment (Table 19, symbol P); assay type: in vivo, common chickweed (Stellaria media); conditions: amount of applied herbicide 320 g/ha
In short: as §3

southern crabgrass = assay: Test Example 5: herbicidal effect by foliage application, plastic box (Table 20, symbol F); assay type: in vivo, southern crabgrass (Digitaria ciliaris); conditions: amount of applied herbicide 320 g/ha; foliage application after 14-day growth; evaluated three weeks after application
In short: (§4)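 Sow seeds spot-wise in sterilized diluvial soil; cover with ~1.5 cm soil. Grow 14 days in greenhouse, 25° C. to 30° C. Spray foliage with emulsion diluted to predetermined amount. Rate effect after 3 weeks.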

wild oat [6] = assay: Test Example 5: herbicidal effect by foliage application, plastic box (Table 20, symbol I); assay type: in vivo, wild oat (Avena fatua); conditions: amount of applied herbicide 320 g/ha; foliage application after 14-day growth; evaluated three weeks after application
In short: as §4

windgrass [7] = assay: Test Example 5: herbicidal effect by foliage application, plastic box (Table 20, symbol L); assay type: in vivo, windgrass (Apera spica-venti); conditions: amount of applied herbicide 320 g/ha; foliage application after 14-day growth; evaluated three weeks after application
In short: as §4

redroot pigweed [8] = assay: Test Example 5: herbicidal effect by foliage application, plastic box (Table 20, symbol N); assay type: in vivo, redroot pigweed (Amaranthus retroflexus); conditions: amount of applied herbicide 320 g/ha; foliage application after 14-day growth; evaluated three weeks after application
In short: as §4

lambsquarters = assay: Test Example 5: herbicidal effect by foliage application, plastic box (Table 20, symbol O); assay type: in vivo, lambsquarters (Chenopodium album); conditions: amount of applied herbicide 320 g/ha; foliage application after 14-day growth; evaluated three weeks after application
In short: as §4

persian speedwell = assay: Test Example 5: herbicidal effect by foliage application, plastic box (Table 20, symbol R); assay type: in vivo, Persian speedwell (Veronica persica); conditions: amount of applied herbicide 320 g/ha; foliage application after 14-day growth; evaluated three weeks after application
In short: as §4

| Structure (SMILES) | Herbicidal effect, B: Japanese bulrush (Japanese bulrush [1]) | Herbicidal effect, C: oval-leafed pondweed (oval-leafed pondweed) | herbicidal effect rating, B: Japanese bulrush (Japanese bulrush [2]) | herbicidal effect on Chinese sprangletop (D) (Chinese sprangletop) | herbicidal effect on rice flat sedge (E) (rice flat sedge) | Herbicidal effect by soil treatment, G: green foxtail (green foxtail) | Herbicidal effect by soil treatment, I: wild oat (wild oat [3]) | Herbicidal effect by soil treatment, K: Italian ryegrass (Italian ryegrass) | Herbicidal effect by soil treatment, L: windgrass (windgrass [4]) | Herbicidal effect by soil treatment, N: redroot pigweed (redroot pigweed [5]) | Herbicidal effect by soil treatment, P: chickweed (chickweed) | Herbicidal effect by foliage application, F: southern crabgrass (southern crabgrass) | Herbicidal effect by foliage application, I: wild oat (wild oat [6]) | Herbicidal effect by foliage application, L: windgrass (windgrass [7]) | Herbicidal effect by foliage application, N: redroot pigweed (redroot pigweed [8]) | Herbicidal effect by foliage application, O: lambsquarters (lambsquarters) | Herbicidal effect by foliage application, R: persian speedwell (persian speedwell) | further results |
| --- | --- | --- | --- | --- | --- | --- | --- | --- | --- | --- | --- | --- | --- | --- | --- | --- | --- | --- |
| Cc1nn(C)c(=O)c(-c2c(-c3ccccc3OC(F)(F)F)sc3c(Cl)cccc23)c1O [4-076] | 3 (Herbicidal rate of 40% or more and less than 70%) | 0 (Herbicidal rate of 5% or less (almost no effect)) | 2 (Herbicidal rate of 20% or more and less than 40%) | 3 (Herbicidal rate of 40% or more and less than 70%) | 3 (Herbicidal rate of 40% or more and less than 70%) | 0 (Herbicidal rate of 5% or less (almost no effect)) | 0 (Herbicidal rate of 5% or less (almost no effect)) | 0 (Herbicidal rate of 5% or less (almost no effect)) | 0 (Herbicidal rate of 5% or less (almost no effect)) | 4 (Herbicidal rate of 70% or more and less than 90%) | 1 (Herbicidal rate of 5% or more and less than 20%) | 1 (Herbicidal rate of 5% or more and less than 20%) | 0 (Herbicidal rate of 5% or less (almost no effect)) | 0 (Herbicidal rate of 5% or less (almost no effect)) | 5 (Herbicidal rate of 90% or more (almost completely withered)) | 4 (Herbicidal rate of 70% or more and less than 90%) | 5 (Herbicidal rate of 90% or more (almost completely withered)) | – |
| COc1ccc(-c2sc3c(C)cccc3c2-c2c(O)c(C)nn(C)c2=O)cc1 [4-110] | 5 (Herbicidal rate of 90% or more (almost completely withered)) | 4 (Herbicidal rate of 70% or more and less than 90%) | 3 (Herbicidal rate of 40% or more and less than 70%) | 0 (Herbicidal rate of 5% or less (almost no effect)) | 5 (Herbicidal rate of 90% or more (almost completely withered)) | 0 (Herbicidal rate of 5% or less (almost no effect)) | 0 (Herbicidal rate of 5% or less (almost no effect)) | 5 (Herbicidal rate of 90% or more (almost completely withered)) | 0 (Herbicidal rate of 5% or less (almost no effect)) | 5 (Herbicidal rate of 90% or more (almost completely withered)) | 5 (Herbicidal rate of 90% or more (almost completely withered)) | 1 (Herbicidal rate of 5% or more and less than 20%) | 0 (Herbicidal rate of 5% or less (almost no effect)) | 4 (Herbicidal rate of 70% or more and less than 90%) | 5 (Herbicidal rate of 90% or more (almost completely withered)) | 5 (Herbicidal rate of 90% or more (almost completely withered)) | 5 (Herbicidal rate of 90% or more (almost completely withered)) | – |
| CCSc1ccc(-c2sc3c(C)cccc3c2-c2c(O)c(C)nn(C)c2=O)cc1 [4-124] | 3 (Herbicidal rate of 40% or more and less than 70%) | 2 (Herbicidal rate of 20% or more and less than 40%) | 0 (Herbicidal rate of 5% or less (almost no effect)) | 3 (Herbicidal rate of 40% or more and less than 70%) | 5 (Herbicidal rate of 90% or more (almost completely withered)) | 5 (Herbicidal rate of 90% or more (almost completely withered)) | 0 (Herbicidal rate of 5% or less (almost no effect)) | 4 (Herbicidal rate of 70% or more and less than 90%) | 0 (Herbicidal rate of 5% or less (almost no effect)) | 5 (Herbicidal rate of 90% or more (almost completely withered)) | 4 (Herbicidal rate of 70% or more and less than 90%) | 3 (Herbicidal rate of 40% or more and less than 70%) | 4 (Herbicidal rate of 70% or more and less than 90%) | 5 (Herbicidal rate of 90% or more (almost completely withered)) | 5 (Herbicidal rate of 90% or more (almost completely withered)) | 5 (Herbicidal rate of 90% or more (almost completely withered)) | 5 (Herbicidal rate of 90% or more (almost completely withered)) | – |
| CCCC(=O)Oc1c(C)nn(C)c(=O)c1-c1c(-c2ccccc2OC)sc2cc(F)c(F)cc12 [5-012] | 3 (Herbicidal rate of 40% or more and less than 70%) | 2 (Herbicidal rate of 20% or more and less than 40%) | 2 (Herbicidal rate of 20% or more and less than 40%) | 2 (Herbicidal rate of 20% or more and less than 40%) | 3 (Herbicidal rate of 40% or more and less than 70%) | – | – | – | – | – | – | 0 (Herbicidal rate of 5% or less (almost no effect)) | 2 (Herbicidal rate of 20% or more and less than 40%) | 1 (Herbicidal rate of 5% or more and less than 20%) | 4 (Herbicidal rate of 70% or more and less than 90%) | 3 (Herbicidal rate of 40% or more and less than 70%) | 3 (Herbicidal rate of 40% or more and less than 70%) | G: green foxtail, herbicidal effect grade (green foxtail): 3 (Herbicidal rate of 40% or more and less than 70%); I: wild oat, herbicidal effect grade (wild oat [3]): 3 (Herbicidal rate of 40% or more and less than 70%); K: Italian ryegrass, herbicidal effect grade (Italian ryegrass): 0 (Herbicidal rate of 5% or less (almost no effect)); L: windgrass, herbicidal effect grade (windgrass [4]): 3 (Herbicidal rate of 40% or more and less than 70%); N: redroot pigweed, herbicidal effect grade (redroot pigweed [5]): 5 (Herbicidal rate of 90% or more (almost completely withered)); P: chickweed, herbicidal effect grade (chickweed): 3 (Herbicidal rate of 40% or more and less than 70%) |
